The assay has as its target T1, SF9 affinity purified rat FPT (Rattus norvegicus, UniProt Q02293+Q04631).
T1 construct: made in house; host or cells: Sf9 insect cells
Kind of assay: PFT (FPT) inhibitory activity assay, radiolabeled farnesyl pyrophosphate and biotinyl peptide, streptavidin beads. In kind it is biochemical. The following applies: HEPES buffer pH 7.4, 30° C., 30 minutes; read-out: FTase IC50. The gist of the method: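 Rat FPT expressed in SF9 cells was incubated 30 minutes at 30° C. with compound (in 10% DMSO), radiolabeled farnesyl pyrophosphate and biotinylated peptide. Buffer: HEPES pH 7.4, ZnCl2 20 μM, MgCl2 and DTT 5 mM each, 0.1% PEG 8000, 5 mM potassium phosphate (also run without phosphate). Product captured on streptavidin beads in magnesium acetate/H3PO4 stop buffer.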

pIC50: −log10 of the molar value.

For the compound `C[C@@H](O)CNC(=O)c1ccccc1S(=O)(=O)Cc1c(O[C@H](Cn2ccnc2)c2ccccc2)ccc2c1CCCC2=O` [Compound 202, N-[(2R)-2-Hydroxypropyl]-2-{[(2-{[(1S)-2-(1H-imidazol-1-yl)-1-phenylethyl]oxy}-5-oxo-5,6,7,8-tetrahydro-1-naphthalenyl)methyl]sulfonyl}benzamide], the negative-log IC50 (pIC50) is 9.70.
`C[C@@H](O)CNC(=O)c1ccc(S(=O)(=O)Cc2c(O[C@H](Cn3ccnc3)c3ccccc3)ccc3c2CCCC3=O)cc1` [Compound 203, N-[(2R)-2-Hydroxypropyl]-4-{[(2-{[(1S)-2-(1H-imidazol-1-yl)-1-phenylethyl]oxy}-5-oxo-5,6,7,8-tetrahydro-1-naphthalenyl)methyl]sulfonyl}benzamide]: the pIC50 is 8.92.
The result for `C[C@@H](O)CNC(=O)c1cccc(S(=O)(=O)Cc2c(O[C@H](Cn3ccnc3)c3ccccc3)ccc3c2CCCC3=O)c1` [Compound 204, N-[(2R)-2-Hydroxypropyl]-3-{[(2-{[(1S)-2-(1H-imidazol-1-yl)-1-phenylethyl]oxy}-5-oxo-5,6,7,8-tetrahydro-1-naphthalenyl)methyl]sulfonyl}benzamide] reads 9.19; that for `C=CCNC(=O)c1cccc(S(=O)(=O)Cc2c(O[C@H](Cn3ccnc3)c3ccccc3)ccc3c2CCCC3=O)c1` [Compound 205, N-Allyl-3-{[(2-{[(1S)-2-(1H-imidazol-1-yl)-1-phenylethyl]oxy}-5-oxo-5,6,7,8-tetrahydro-1-naphthalenyl)methyl]sulfonyl}benzamide], 9.70.
As for `C=CCNC(=O)c1ccc(S(=O)(=O)Cc2c(O[C@H](Cn3ccnc3)c3ccccc3)ccc3c2CCCC3=O)cc1` [Compound 206, N-Allyl-4-{[(2-{[(1S)-2-(1H-imidazol-1-yl)-1-phenylethyl]oxy}-5-oxo-5,6,7,8-tetrahydro-1-naphthalenyl)methyl]sulfonyl}benzamide], the pIC50 is 9.10.
As for `C=CCNC(=O)c1ccccc1S(=O)(=O)Cc1c(O[C@H](Cn2ccnc2)c2ccccc2)ccc2c1CCCC2=O` [Compound 207, N-Allyl-2-{[(2-{[(1S)-2-(1H-imidazol-1-yl)-1-phenylethyl]oxy}-5-oxo-5,6,7,8-tetrahydro-1-naphthalenyl)methyl]sulfonyl}benzamide], the pIC50 is 9.70.
`C=CCNC(=O)c1ccccc1SCc1c(O[C@H](Cn2ccnc2)c2ccccc2)ccc2c1CCCC2=O` [Compound 208, N-Allyl-2-{[(2-{[(1S)-2-(1H-imidazol-1-yl)-1-phenylethyl]oxy}-5-oxo-5,6,7,8-tetrahydro-1-naphthalenyl)methyl]sulfanyl}benzamide]: the pIC50 was 9.70.
With `C=CCNC(=O)c1ccc(SCc2c(O[C@H](Cn3ccnc3)c3ccccc3)ccc3c2CCCC3=O)cc1` [Compound 209, N-Allyl-4-{[(2-{[(1S)-2-(1H-imidazol-1-yl)-1-phenylethyl]oxy}-5-oxo-5,6,7,8-tetrahydro-1-naphthalenyl)methyl]sulfanyl}benzamide] the figure was 9.70; with `C=CCNC(=O)c1cccc(SCc2c(O[C@H](Cn3ccnc3)c3ccccc3)ccc3c2CCCC3=O)c1` [Compound 210, N-Allyl-3-{[(2-{[(1S)-2-(1H-imidazol-1-yl)-1-phenylethyl]oxy}-5-oxo-5,6,7,8-tetrahydro-1-naphthalenyl)methyl]sulfanyl}benzamide], 9.70.
Turning to `C#CCNC(=O)c1ccccc1SCc1c(O[C@H](Cn2ccnc2)c2ccccc2)ccc2c1CCCC2=O` [Compound 211, 2-{[(2-{[(1S)-2-(1H-Imidazol-1-yl)-1-phenylethyl]oxy}-5-oxo-5,6,7,8-tetrahydro-1-naphthalenyl)methyl]sulfanyl}-N-(2-propynyl)benzamide], the pIC50 is 9.70.
With `C#CCNC(=O)c1ccc(SCc2c(O[C@H](Cn3ccnc3)c3ccccc3)ccc3c2CCCC3=O)cc1` [Compound 212, 4-{[(2-{[(1S)-2-(1H-Imidazol-1-yl)-1-phenylethyl]oxy}-5-oxo-5,6,7,8-tetrahydro-1-naphthalenyl)methyl]sulfanyl}-N-(2-propynyl)benzamide], the pIC50 was 9.70.
With `C#CCNC(=O)c1cccc(SCc2c(O[C@H](Cn3ccnc3)c3ccccc3)ccc3c2CCCC3=O)c1` [Compound 213, 3-{[(2-{[(1S)-2-(1H-Imidazol-1-yl)-1-phenylethyl]oxy}-5-oxo-5,6,7,8-tetrahydro-1-naphthalenyl)methyl]sulfanyl}-N-(2-propynyl)benzamide], the pIC50 was 9.70.
`C#CCNC(=O)c1ccc(S(=O)(=O)Cc2c(O[C@H](Cn3ccnc3)c3ccccc3)ccc3c2CCCC3=O)cc1` [Compound 214, 4-{[(2-{[(1S)-2-(1H-Imidazol-1-yl)-1-phenylethyl]oxy}-5-oxo-5,6,7,8-tetrahydro-1-naphthalenyl)methyl]sulfonyl}-N-(2-propynyl)benzamide]: the pIC50 is 9.43.
The result for `C#CCNC(=O)c1cccc(S(=O)(=O)Cc2c(O[C@H](Cn3ccnc3)c3ccccc3)ccc3c2CCCC3=O)c1` [Compound 215, 3-{[(2-{[(1S)-2-(1H-Imidazol-1-yl)-1-phenylethyl]oxy}-5-oxo-5,6,7,8-tetrahydro-1-naphthalenyl)methyl]sulfonyl}-N-(2-propynyl)benzamide] reads 9.70; that for `C#CCNC(=O)c1ccccc1S(=O)(=O)Cc1c(O[C@H](Cn2ccnc2)c2ccccc2)ccc2c1CCCC2=O` [Compound 216, 2-{[(2-{[(1S)-2-(1H-Imidazol-1-yl)-1-phenylethyl]oxy}-5-oxo-5,6,7,8-tetrahydro-1-naphthalenyl)methyl]sulfonyl}-N-(2-propynyl)benzamide], 9.40.
The result for `O=C(NC1CCCC1)c1ccc(S(=O)(=O)Cc2c(O[C@H](Cn3ccnc3)c3ccccc3)ccc3c2CCCC3=O)cc1` [Compound 217, N-Cyclopentyl-4-{[(2-{[(1S)-2-(1H-imidazol-1-yl)-1-phenylethyl]oxy}-5-oxo-5,6,7,8-tetrahydro-1-naphthalenyl)methyl]sulfonyl}benzamide] reads 9.70; that for `O=C(NC1CCCC1)c1cccc(S(=O)(=O)Cc2c(O[C@H](Cn3ccnc3)c3ccccc3)ccc3c2CCCC3=O)c1` [Compound 218, N-Cyclopentyl-3-{[(2-{[(1S)-2-(1H-imidazol-1-yl)-1-phenylethyl]oxy}-5-oxo-5,6,7,8-tetrahydro-1-naphthalenyl)methyl]sulfonyl}benzamide], 9.70; that for `O=C(NC1CCCC1)c1ccccc1S(=O)(=O)Cc1c(O[C@H](Cn2ccnc2)c2ccccc2)ccc2c1CCCC2=O` [Compound 219, N-Cyclopentyl-2-{[(2-{[(1S)-2-(1H-imidazol-1-yl)-1-phenylethyl]oxy}-5-oxo-5,6,7,8-tetrahydro-1-naphthalenyl)methyl]sulfonyl}benzamide], 9.33.
As for `O=C(NC1CCCC1)c1ccc(SCc2c(O[C@H](Cn3ccnc3)c3ccccc3)ccc3c2CCCC3=O)cc1` [Compound 220, N-Cyclopentyl-4-{[(2-{[(1S)-2-(1H-imidazol-1-yl)-1-phenylethyl]oxy}-5-oxo-5,6,7,8-tetrahydro-1-naphthalenyl)methyl]sulfanyl}benzamide], the pIC50 was 9.70.
With `O=C(NC1CCCC1)c1cccc(SCc2c(O[C@H](Cn3ccnc3)c3ccccc3)ccc3c2CCCC3=O)c1` [Compound 221, N-Cyclopentyl-3-{[(2-{[(1S)-2-(1H-imidazol-1-yl)-1-phenylethyl]oxy}-5-oxo-5,6,7,8-tetrahydro-1-naphthalenyl)methyl]sulfanyl}benzamide] the figure was 9.70; with `O=C(NC1CCCC1)c1ccccc1SCc1c(O[C@H](Cn2ccnc2)c2ccccc2)ccc2c1CCCC2=O` [Compound 222, N-Cyclopentyl-2-{[(2-{[(1S)-2-(1H-imidazol-1-yl)-1-phenylethyl]oxy}-5-oxo-5,6,7,8-tetrahydro-1-naphthalenyl)methyl]sulfanyl}benzamide], 9.70.
As to `O=C(NC1CC1)c1ccc(S(=O)(=O)Cc2c(O[C@H](Cn3ccnc3)c3ccccc3)ccc3c2CCCC3=O)cc1` [Compound 223, N-Cyclopropyl-4-{[(2-{[(1S)-2-(1H-imidazol-1-yl)-1-phenylethyl]oxy}-5-oxo-5,6,7,8-tetrahydro-1-naphthalenyl)methyl]sulfonyl}benzamide], the pIC50 was 9.62.
Take `O=C(NC1CC1)c1cccc(S(=O)(=O)Cc2c(O[C@H](Cn3ccnc3)c3ccccc3)ccc3c2CCCC3=O)c1` [Compound 224, N-Cyclopropyl-3-{[(2-{[(1S)-2-(1H-imidazol-1-yl)-1-phenylethyl]oxy}-5-oxo-5,6,7,8-tetrahydro-1-naphthalenyl)methyl]sulfonyl}benzamide]: the pIC50 is 9.70.
In the case of `O=C(NC1CC1)c1ccccc1S(=O)(=O)Cc1c(O[C@H](Cn2ccnc2)c2ccccc2)ccc2c1CCCC2=O` [Compound 225, N-Cyclopropyl-2-{[(2-{[(1S)-2-(1H-imidazol-1-yl)-1-phenylethyl]oxy}-5-oxo-5,6,7,8-tetrahydro-1-naphthalenyl)methyl]sulfonyl}benzamide], the pIC50 is 9.70.
As for `O=C(NC1CC1)c1ccc(SCc2c(O[C@H](Cn3ccnc3)c3ccccc3)ccc3c2CCCC3=O)cc1` [Compound 226, N-Cyclopropyl-4-{[(2-{[(1S)-2-(1H-imidazol-1-yl)-1-phenylethyl]oxy}-5-oxo-5,6,7,8-tetrahydro-1-naphthalenyl)methyl]sulfanyl}benzamide], the pIC50 is 9.70.
With `O=C(NC1CC1)c1cccc(SCc2c(O[C@H](Cn3ccnc3)c3ccccc3)ccc3c2CCCC3=O)c1` [Compound 227, N-Cyclopropyl-3-{[(2-{[(1S)-2-(1H-imidazol-1-yl)-1-phenylethyl]oxy}-5-oxo-5,6,7,8-tetrahydro-1-naphthalenyl)methyl]sulfanyl}benzamide], the pIC50 was 9.70.

Values taken from patent publication US6943183B2 (Pfizer Inc, priority 2000, dated 2005).
